Common to all, as to format: cell-based
In assay [1] the target is T1, human TRPC5 (Homo sapiens, UniProt Q9UL62).
T1 construct: expressed in transfected cells
T1 sequence (Q9UL62 1-973): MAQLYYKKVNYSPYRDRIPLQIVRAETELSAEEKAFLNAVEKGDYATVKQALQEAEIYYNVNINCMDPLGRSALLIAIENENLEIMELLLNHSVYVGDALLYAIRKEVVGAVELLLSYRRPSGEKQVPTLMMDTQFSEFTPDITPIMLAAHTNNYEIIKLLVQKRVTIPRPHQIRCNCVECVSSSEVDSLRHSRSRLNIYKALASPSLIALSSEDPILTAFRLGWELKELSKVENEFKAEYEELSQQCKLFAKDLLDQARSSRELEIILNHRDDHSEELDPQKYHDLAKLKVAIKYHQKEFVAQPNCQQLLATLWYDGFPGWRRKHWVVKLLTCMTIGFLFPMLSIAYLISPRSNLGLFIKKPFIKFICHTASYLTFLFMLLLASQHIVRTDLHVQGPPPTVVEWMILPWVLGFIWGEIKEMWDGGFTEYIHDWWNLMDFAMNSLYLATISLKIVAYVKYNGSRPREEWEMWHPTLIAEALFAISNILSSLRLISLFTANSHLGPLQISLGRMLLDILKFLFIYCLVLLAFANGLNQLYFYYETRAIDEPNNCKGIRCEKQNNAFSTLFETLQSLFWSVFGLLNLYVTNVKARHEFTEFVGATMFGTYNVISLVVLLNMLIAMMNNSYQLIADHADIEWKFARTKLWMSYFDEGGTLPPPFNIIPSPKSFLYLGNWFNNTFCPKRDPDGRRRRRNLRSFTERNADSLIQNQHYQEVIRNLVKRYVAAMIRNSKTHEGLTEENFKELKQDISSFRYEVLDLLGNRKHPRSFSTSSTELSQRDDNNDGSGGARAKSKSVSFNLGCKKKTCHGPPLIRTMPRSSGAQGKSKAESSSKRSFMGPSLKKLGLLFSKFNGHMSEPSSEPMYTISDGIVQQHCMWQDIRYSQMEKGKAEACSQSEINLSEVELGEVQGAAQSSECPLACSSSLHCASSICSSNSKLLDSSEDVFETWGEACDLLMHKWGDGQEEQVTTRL
As to the kind of experiment: FLIPR calcium assay, compound activation (agonism) of TRPC5 calcium response. Set-up: key to Agonist Potency Range (FLIPR): A=0.001-1 μM; B=1-10 μM; C=>1 μM; D=tested with a positive result for agonism, but EC50 not calculated. Particulars: ICLN-1633 cells, Fluo-4 calcium response; for pEC50: read-out: Agonist Potency Range (FLIPR). The procedure: (§1) ICLN-1633 cells (HEK-TREx hTRPC5) expressing TRPC5 were generated as follows. Commercially available HekTrex-293 cells were seeded at 0.7×10^6 cells/well in a 1×6-well plate 24 hrs prior to transfection using 2 mL cell growth media containing no antibiotics (1× DMEM/high glucose (Hyclone #SH30022.02); 10% fetal bovine serum (Sigma) 2 mM sodium pyruvate, 10 mM HEPES). The human TRPC5 coding sequence (NM_012471 with a silent T478C mutation) was cloned into pcDNA5/TO (Invitrogen; Cat No. V103320) using hygromycin as the resistance gene and the plasmid (SEQ ID NO:1) propagated using T-Rex-293 cells (Invitrogen; Cat No. R71007) following manufacturer's directions. On day 2, 2 μg of plasmid DNA plus 6 μl of Xtreme-GENE HP reagent in Optimem (200 μl total volume) was prepared and incubated for 15 min at room temperature. This plasmid solution was then gently overlayed dropwise onto each well and the plate was gently swirled to mix complex with the media for approximately 30 seconds. Transfected cells were incubated at 37° C. in a 10% CO2 incubator for 24 hrs. The transfected cells were harvested and transferred into 2×150 mm dishes containing cell growth media with no antibiotics at 37° C.
(§2) Compounds were made up to, or supplied as a 10 mM stock solution generally using DMSO as the vehicle. 10-point dose response curves were generated using the Echo-550 acoustic dispenser. Compound source plates were made by serially diluting compound stocks to create 10 mM, 1 mM, and 0.1 mM solutions in DMSO into Echo certified LDV plates. The Echo then serially spotted 100% DMSO stock solutions into source dose response plates to generate a 4-fold dilution scheme. 100% DMSO was added to the spotted dose response plates to bring the final volume to 5 μl. 300 nl of the dose response stock plate was then spotted into pre-incubation and stimulation assay plates. 50 μl of pre-incubation buffer and 100 μl of stimulation buffer was then added to the plates resulting in a final assay test concentration range of 30 μM to 0.0001 μM with a final DMSO concentration of 0.3%.
(§3) Human ICLN-1633 cells expressing were plated onto 384 well, black poly-D-lysine-coated microplates and maintained in TRPC5 growth media the day prior to use for experiments. TRPC5 expression was induced by the application of 1 μg/mL tetracycline at the time of plating. Media was removed from the plates and 10 μl of 4 μM of Fluo-4 AM (mixed with equal volume of Pluronic F-127) in Earls's Balanced Salt Solution (EBSS) was added to the cells. Cells were incubated at room temperature, protected from light, for 60-90 minutes. After the incubation period, the dye was removed and replaced with 10 μl of EBSS. Cell, pre-incubation and stimulation plates were loaded onto the FLIPR-II and the assay was initiated. The FLIPR measured a 10 second baseline and then added 10 μl of 2× compounds (or controls). Changes in fluorescence were monitored for an additional 5 minutes. After the 5 minute pre-incubation, 20 μl of 2× riluzole (with 1× compound or controls) was added to the cell plate. The final riluzole stimulation concentration in the assay was 30 μM. After the riluzole addition, changes in fluorescence were monitored for an additional 5 minutes. Reduction in the riluzole-activated calcium response relative to control wells was reported as inhibition. A compound-mediated increase in the riluzole response relative to control riluzole response (no test agent present) with no enhancement of calcium entry during preincubation phase was reported as an agonist response.
Compound activation (agonism) of TRPC5 calcium response was determined as follows. After the initial compound addition, fluorescence was monitored for 5 minutes. The maximum relative fluorescence response (minus the control response of EBSS buffer alone) is captured and exported from the FLIPR. Compound activation is calculated using the following formula: […]

For assay [2], the target named is T1, human TRPC5. As to the kind of experiment: FLIPR calcium assay, inhibition of riluzole-activated TRPC5 calcium response. Particulars: ICLN-1633 cells; riluzole 30 μM stimulation; Fluo-4 calcium response; read-out: Inhibitor Potency Range (FLIPR). The procedure: as §1, §2, §3
Compound inhibition of TRPC5 calcium response was determined as follows. After the riluzole addition, fluorescence was monitored for a 5-minute period. For inhibition, the maximum relative fluorescence response (minus the control response of 1 μM of an internal control compound known to maximally block TRPC5 calcium response, the “REF INHIB” in the formula below) was captured and exported from the FLIPR. […]

For assay [3], the target named is T1, human TRPC5. As to the kind of experiment: Automated patch clamp assay (QPatch), antagonist mode. Particulars: HEK-TREx hTRPC5 cells; channel activated with Rosiglitazone 30 μM; normalised to ML-204 block; read-out: Qpatch Potency Range. The procedure: as §1
The next day selection was initiated to generate a stable pool by adding cell growth media containing 150 μg/mL Hygromycin and 5 μg/mL Blasticidin and cells were allowed to grow. Media with the selection agent was changed every 1-2 days as needed to remove dead cells. After 7 days, the hygromycin concentration was reduced to 75 μg/mL and cells growth was allowed to continue.
Single clones were selected as follows. The stable pool was diluted to 10 cells/mL and seeded (100 μl/well) into 24×96 well plates (˜1 cell/well) and allowed to grow for 7 days in cell growth media. Fresh media (100 μl) was added and the cells allowed to grow for another 1-2 weeks and then stored frozen or used immediately.
The automated electrophysiological assay was carried out at room temperature. On the day of the experiment, TRPC5 cells were cultured according to our Standard Operating Procedure. Briefly, cells were harvested using TrypLE™ Express, re-suspended in serum free medium, added to the automated platform and used within 0.5-3 hours. Internal and external physiological solutions were freshly prepared prior to the assay. The external solution contained: 145 mM NaCl, 4 mM KCl, 2 mM CaCl2, 1 mM MgCl2, 10 mM HEPES, 10 mM glucose, pH 7.4 with NaOH and 310 mOsm/L. The internal solution contained 120 mM L-aspartic acid, 120 mM CsOH·H2O, 20 mM CsCl, 2 mM MgCl2, 8.8 mM CaCl2, 10 mM EGTA, 10 mM HEPES and 2 mM Na2ATP; pH 7.2 with CsOH and 330 mOsm/L. The free internal Ca^2+ concentration was buffered to 1 μM, according to the WCabuf software. The automated electrophysiological platform QPatch 16 from Sophion (Denmark) was used to carry out the compounds profiling. The series resistance and quality of seals were continuously monitored during the experiments. Data were analyzed using Sophion QPatch assay software 5.6 (Odense). Data were normalized using the maximum activation obtained during the pre-compound agonist application as the top value (1.0) and maximum inhibition induced by ML-204 as the bottom value (0.0). IC50 values were calculated using a least squares regression algorithm (Hill equation).
To monitor the ion currents, a voltage ramp from −100 mV to +100 mV, over 300 ms, was applied every 10 seconds, from a holding potential of −60 mV. Antagonist-mode: After recording for a minimum of 60 seconds control period, the EC60 concentration of the TRPC5 agonist, Rosiglitazone (30 μM), was applied to activate the channel. After reaching steady-state, co-application of increasing concentrations of test compound were applied followed by two applications of Rosiglitazone EC60 and a saturating concentration of the specific blocker ML-204 (100 μM).

pEC50, pIC50: −log10 of the molar value. Bounds are passed on as bounds.

Consider `CC(C)Oc1nc2c(n1Cc1ccc(Cl)cc1)C(=O)N(CCCO)C(=O)[C@H]1CCCN21` [Compound 29], for which the pEC50 at human TRPC5 [1] was 5.00 to 6.00. Further, the pIC50 at human TRPC5 [2] is < 5.00.
The matching figures for `CCCOc1nc2c(n1Cc1ccc(Cl)cc1)C(=O)N(CCCO)C(=O)[C@@H]1CCCN21` [Compound 31]: 6.00 to 9.00 and < 5.00.
Consider `C[C@@H](c1ccc(Cl)cc1)n1c(Oc2cccc(F)c2)nc2c1C(=O)N(CCCO)CC(=O)N2C` (single isomer, unassigned) [Compound 7], for which the values for the pIC50 at human TRPC5 [3] and on human TRPC5 [2] were 4.52 to 6.00 and < 5.00, respectively.
As for `CCCOc1nc2c(n1Cc1ccc(Cl)cc1)C(=O)N(CCCO)C(=O)[C@H]1CCCN21` [Compound 30], on human TRPC5 [1], the pEC50 is 5.00 to 6.00. Further, the pIC50 at human TRPC5 [2] was < 5.00.
The matching figures for `O=C1c2c(nc(Oc3cccc(F)c3)n2Cc2ccc(Cl)cc2)N2CCC[C@@H]2C(=O)N1CCCO` [Compound 27]: 6.00 to 9.00 and < 5.00.
`CN1C(=O)[C@@H](CCO)N(C)C(=O)c2c1nc(Oc1cccc(OC(F)(F)F)c1)n2Cc1ccc(Cl)cc1` (single isomer, unassigned) [Compound 18]: the pIC50 on human TRPC5 [3] is 6.00 to 9.00; on human TRPC5 [2] it was < 5.00.
Consider `CCCCn1c(Oc2cccc(F)c2)nc2c1C(=O)N(CCCO)C(=O)[C@H]1CCCN21` (single isomer, unassigned) [Compound 25], for which, on human TRPC5 [1], the “Agonist Potency Range (FLIPR)” value was “D”. Also, on human TRPC5 [2], the pIC50 is < 5.00.
Take `CC(C)Oc1nc2c(n1Cc1ccc(Cl)cc1)C(=O)N(CCCO)C(=O)[C@@H]1CCCN21` [Compound 28]: the pEC50 at human TRPC5 [1] was 6.00 to 9.00. In addition, on human TRPC5 [2], the pIC50 was < 5.00.
As to `C[C@H](c1ccc(Cl)cc1)n1c(Oc2cccc(F)c2)nc2c1C(=O)N(CCCO)CC(=O)N2C` (single isomer, unassigned) [Compound 6], the pIC50 on human TRPC5 [3] was < 4.52; on human TRPC5 [2] it was < 5.00.
The matching figures for `C[C@H]1C(=O)N(C)c2nc(Oc3cccc(F)c3)n(Cc3ccc(Cl)cc3)c2C(=O)N1CCCO` (single isomer, unassigned) [Compound 20]: 4.52 to 6.00 and 6.00 to 9.00.
Turning to `CN1C(=O)CN(CC(F)(F)CO)C(=O)c2c1nc(Oc1cccc(OC(F)(F)F)c1)n2Cc1ccc(Cl)cc1` [Compound 11], the pIC50 at human TRPC5 [3] was < 4.52; on human TRPC5 [2], 5.00 to 6.00.

Source of the values: patent US12466834B2, “Imidazodiazepinediones and methods of use thereof” (GFB (ABC), LLC, priority 2018, dated 2025).
